Measured values reported in US4206235A, “Novel 2,5-dihalophenyl-β-substituted sulfone fungicides” (priority 1976, dated 1980).
In brackets after ≈: the same amount, converted by molar mass. Several values for one entry are separate records, joined by “and”; a condition that tells them apart may be missing. Identical values can stand only once.

Legend:
Penicillium funiculosum = test: Halo test on plasticized PVC sheeting; type: cell-based; parameters: key to growth under the test sample (GUS): +: no reduction in growth; ±: slight reduction in growth; .-+.: moderate reduction in growth; -: complete reduction in growth
Paecilomyces varioti [1] = test: Halo test on plasticized PVC sheeting; type: cell-based; parameters: key to growth under the test sample (GUS): +: no reduction in growth; ±: slight reduction in growth; .-+.: moderate reduction in growth; -: complete reduction in growth
Trichoderma viride = test: Halo test on plasticized PVC sheeting; type: cell-based; parameters: key to growth under the test sample (GUS): +: no reduction in growth; ±: slight reduction in growth; .-+.: moderate reduction in growth; -: complete reduction in growth
Penicillium funivulosum = test: Agar incorporation test; type: cell-based; settings: 120 h, 5 days at 28° C., P. funiculosum
Method: The fungal plates were incubated for 5 days at 28° C. The plates were then assessed for either the presence or absence of growth and the minimum inhibitory concentration (MIC) in ppm recorded.

[2] = system: mixed spore suspension of Aspergillus flavus, Aspergillus niger, Paecilomyces varioti, Penicillium funiculosum, Trichoderma viride, Alternaria tenuis …; test: Weight Loss Test of PVC sheeting; settings: 14 days at 28° C.; for % weight loss: single strip
Pythium aphanidermatum = test: Fungitoxicity in culture media (agar), growth inhibition; type: cell-based; settings: 50% inhibition of growth, read-out: ED50 (the source's name)
Method: (§1) Acetone solutions of the compound were mixed with an aliquot of distilled water and the fine suspension obtained was mixed with cooled but melted agar medium and poured into Petri dishes.
(§2) The tested fungi were grown on the solidified media. Growth of the fungus was measured and percent inhibition was calculated by comparing with the appropriate acetone-water controls. Media were usually Martin's or potato-dextrose agar media.
(§3) ED50 = effective dose, sufficient for the 50% inhibition of growth of the fungus, expressed in p.p.m.

Rhizopus stolonifer = test: as above; type: cell-based; settings: 50% inhibition of growth, read-out: ED50 (the source's name)
Method: as §1, §2, §3

[3] = system: Fusarium oxysporum sp. f.lycopersici; test: as above; type: cell-based; settings: 50% inhibition of growth, read-out: ED50 (the source's name)
Method: as §1, §2, §3

Sclerotinia rolfsil = test: as above; type: cell-based; settings: 50% inhibition of growth, read-out: ED50 (the source's name)
Method: as §1, §2, §3

Rhizoctonia bataticola = test: as above; type: cell-based; settings: Macrophomina phaseolina, 50% inhibition of growth, read-out: ED50 (the source's name)
Method: as §1, §2, §3

Rhizoctonia solani = test: as above; type: cell-based; settings: 50% inhibition of growth, read-out: ED50 (the source's name)
Method: as §1, §2, §3

Alternaria tenuis = test: Halo test on plasticized PVC sheeting; type: cell-based; parameters: key to growth under the test sample (GUS): +: no reduction in growth; ±: slight reduction in growth; .-+.: moderate reduction in growth; -: complete reduction in growth; settings: for Zone of growth inhibition (halo): brackets = growth partially suppressed
[4] = system: Cladosporium cladosporoides; test: Halo test on plasticized PVC sheeting; type: cell-based; parameters: key to growth under the test sample (GUS): +: no reduction in growth; ±: slight reduction in growth; .-+.: moderate reduction in growth; -: complete reduction in growth
[5] = system: Cladosporium cladosporides; test: Agar incorporation test; type: cell-based; settings: 120 h, 5 days at 28° C.
Method: (§4) Pure cultures of fungi Paecilomyces varioti, Cladosporium cladosporides, Penicillium funivulosum, and Aspergillus niger were exposed to a range of dilutions of the compound viz: 10,000, 3,000, 1,000, 600, 300, 100, 30, 10, 1 ppm incorporated into agar via […]. The fungal plates were incubated for 5 days at 28° C. The plates were then assessed for either the presence or absence of growth and the minimum inhibitory concentration (MIC) in ppm recorded.

Aspergillus niger [6] = test: Agar incorporation test; type: cell-based; settings: 120 h, 5 days at 28° C., A. niger
Method: as §4

Paecilomyces varioti [7] = test: Agar incorporation test; type: cell-based; settings: 120 h, 5 days at 28° C., P. varioti
Method: as §4

Aspergillus niger [8] = test: Halo test on plasticized PVC sheeting; type: cell-based; parameters: key to growth under the test sample (GUS): +: no reduction in growth; ±: slight reduction in growth; .-+.: moderate reduction in growth; -: complete reduction in growth
Aspergillus flavus = test: Halo test on plasticized PVC sheeting; type: cell-based; parameters: key to growth under the test sample (GUS): +: no reduction in growth; ±: slight reduction in growth; .-+.: moderate reduction in growth; -: complete reduction in growth
common moulds = test: Activity against common moulds on plasticized PVC sheets; type: cell-based
two-spotted mite = test: Activity against the two-spotted mite
[9] = 0.5% in PVC sheeting, brackets = growth partially suppressed

COC(=O)C(Cl)CS(=O)(=O)c1cc(Cl)ccc1Cl (stereo not drawn) [Example 3, 2,5-dichlorophenyl-β-carboxymethyl-β'-chloroethyl sulfone]
growth under the test sample (GUS) (Penicillium funiculosum; 0.5% in PVC sheeting): -
Zone of growth inhibition (halo) (Penicillium funiculosum; [9]): 4 millimetres
Zone of growth inhibition (halo) (Penicillium funiculosum; 1% in PVC sheeting): 8 millimetres
growth under the test sample (GUS) (Penicillium funiculosum; 1% in PVC sheeting): -
Zone of growth inhibition (halo) (Paecilomyces varioti [1]; 0.5% in PVC sheeting): 5 millimetres
growth under the test sample (GUS) (Paecilomyces varioti [1]; 0.5% in PVC sheeting): -
Zone of growth inhibition (halo) (Paecilomyces varioti [1]; 1% in PVC sheeting): 10 millimetres
growth under the test sample (GUS) (Paecilomyces varioti [1]; 1% in PVC sheeting): -
Zone of growth inhibition (halo) (Trichoderma viride; 0.5% in PVC sheeting): 2 millimetres
growth under the test sample (GUS) (Trichoderma viride; 0.5% in PVC sheeting): .-+.
Zone of growth inhibition (halo) (Trichoderma viride; 1% in PVC sheeting): 5 millimetres
growth under the test sample (GUS) (Trichoderma viride; 1% in PVC sheeting): .-+.
MIC (Penicillium funivulosum): 30 µg/mL (≈ 90.5 µM)
Mean % loss as plasticizer ([2]; 0.5%): 1.8%
Mean % weight loss ([2]; 0.5%): 0.6%
% weight loss ([2]; 0.5%): 0.7% and 0.6% and 0.4% and 0.5%
Mean % loss as plasticizer ([2]; 1.0%): 0.6%
Mean % weight loss ([2]; 1.0%): 0.2%
% weight loss ([2]; 1.0%): 0.4% and 0.1% and 0.01% and 0.2%
IC50 (Pythium aphanidermatum): > 50 µg/mL
IC50 (Rhizopus stolonifer): > 50 µg/mL
IC50 [3]: > 50 µg/mL
IC50 (Sclerotinia rolfsil): 50 µg/mL (≈ 151 µM)
IC50 (Rhizoctonia bataticola): 50 µg/mL (≈ 151 µM)
IC50 (Rhizoctonia solani): 20 µg/mL (≈ 60.3 µM)
growth under the test sample (GUS) (Alternaria tenuis; 0.5% in PVC sheeting): -
Zone of growth inhibition (halo) (Alternaria tenuis; 0.5% in PVC sheeting): 5 millimetres
growth under the test sample (GUS) (Alternaria tenuis; 1% in PVC sheeting): -
Zone of growth inhibition (halo) (Alternaria tenuis; 1% in PVC sheeting): 10 millimetres
growth under the test sample (GUS) ([4]; 0.5% in PVC sheeting): -
Zone of growth inhibition (halo) [4, 9]: 4 millimetres
Zone of growth inhibition (halo) ([4]; 1% in PVC sheeting): 9 millimetres
growth under the test sample (GUS) ([4]; 1% in PVC sheeting): -
MIC [5]: 100 µg/mL (≈ 302 µM)
MIC (Aspergillus niger [6]): 100 µg/mL (≈ 302 µM)
MIC (Paecilomyces varioti [7]): 100 µg/mL (≈ 302 µM)
growth under the test sample (GUS) (Aspergillus niger [8]; 0.5% in PVC sheeting): -
Zone of growth inhibition (halo) (Aspergillus niger [8]; [9]): 2 millimetres
Zone of growth inhibition (halo) (Aspergillus niger [8]; 1% in PVC sheeting): 6 millimetres
growth under the test sample (GUS) (Aspergillus niger [8]; 1% in PVC sheeting): -
Zone of growth inhibition (halo) (Aspergillus flavus; 0.5% in PVC sheeting): 1 millimetres
growth under the test sample (GUS) (Aspergillus flavus; 0.5% in PVC sheeting): .-+.
Zone of growth inhibition (halo) (Aspergillus flavus; 1% in PVC sheeting): 1 millimetres
growth under the test sample (GUS) (Aspergillus flavus; 1% in PVC sheeting): .-+.
inhibition of the growth of common moulds on PVC sheets (common moulds; 0.5% by weight, PVC plasticized with 30% dialkyl sebacate): Complete inhibition
inhibition of fungi (common moulds; 0.5% in sheeting, halo test, seven fungi): all fungi were inhibited
inhibition of fungal attack (common moulds; 0.5 and 1.0% in sheeting): virtual complete inhibition of fungal attack
degree of inhibition against the seven fungi (common moulds; 1.0% in sheeting, halo test): good

O=S(=O)(C=C(Cl)Cl)c1cc(Cl)ccc1Cl [Example 4, 2,5-dichlorophenyl-β, β-dichlorovinyl sulfone]
activity against the two-spotted mite (two-spotted mite): strong activity
IC50 (Pythium aphanidermatum): 1 µg/mL (≈ 3.27 µM)
IC50 [3]: 5 µg/mL (≈ 16.3 µM)
IC50 (Sclerotinia rolfsil): 10 µg/mL (≈ 32.7 µM)
IC50 (Rhizoctonia bataticola): 5 µg/mL (≈ 16.3 µM)
IC50 (Rhizoctonia solani): 5 µg/mL (≈ 16.3 µM)
